# Test results published in US20130115356A1, “SWEETENER COMPOSITION” (FIRMENICH SA, priority 2010, published 2013).
# Tests used:
# [1] = Trained panel taste evaluation of lemon ice tea beverages; type: in vivo, human; settings: conclusion from Table 3, sclareolide 0.075 wt % in Base B
# Description: Lemon ice tea beverages were prepared with the following ingredients in the amounts shown (grams). Base A is the full sucrose product (i.e. control sample). Base B is the same as base A except with 50% reduced sucrose and additional stevia sweetener in to provide the same level of sweetness.
# The ingredients for each base were mixed together until fully dissolved.
# The samples were then evaluated by a trained panel of 10 people. Tasting was performed by a blind and balanced presentation order of the samples with the intensity of acidity, bitterness, sweetness and liquorice all being assessed on a scale of 0 to 5 where 0 represents not perceptible and 5 represents very intense.
# The scores were averaged and an analysis of variance was performed to identify significant differences between the samples.
# [2] = Panel evaluation of a carbonated lemon beverage formulation; type: in vivo, human; settings: carbonated lemon beverage with stevia
# Description: A lemon beverage syrup base was prepared by mixing together the following ingredients:
# To a 1 litre portion of the syrup base was added 6 g of sclareolide, ex Avoca (1% w/v ethanolic solution). The mixture was then dilute with 5 litres of carbonated water to provide sclareolide at 10 ppm. This is referred to as sample 6.
# To another 1 litre portion of the syrup base was added 0.12 g of sclareolide, ex Avoca (1% w/v ethanolic solution). The mixture was then dilute with 5 litres of carbonated water to provide sclareolide at 0.2 ppm. This is referred to as sample 7.
# A third portion of the syrup base was used as is (i.e. with no sclareolide present) and was diluted with 5 litres of carbonated water. This is referred to as sample 8.
# 30 panellists were then asked to evaluate (i) sample 6 and sample 8 and (ii) sample 7 and sample 8 in a balanced, randomized blind test for Overall Flavor, Sweetness, Tartness/Acidity, Lingering Aftertaste, Metallic/Bitterness, Off-note aftertaste and Liquorice Flavor on an 11-point continuous intensity scale where 0=Imperceptible and 10=Extremely Pronounced.
smiles,measurement,setting,value
CC1(C)CCC[C@]2(C)[C@H]3CC(=O)O[C@]3(C)CC[C@@H]12 [sclareolide],"effect on the acidity, bitterness or sweetness of the product",[1],does not appear to have a significant effect
same,effect on the liquorice taste of the product,[1],significantly reduces the liquorice taste
same,masking effect,[2]; sclareolide at 0.2 ppm,little or no masking effect observed
same,masking liquorice notes,[2]; sclareolide at 10 ppm,not achieved
